Measured values published in patent US20230414556A1, “NANO-HEPATIC TARGETED EPIGALLOCATECHIN GALLATE IN DYSLIPIDEMIA” (priority 2022, published 2023).
Like-named read-outs stand apart in the source and are kept apart here.

Key:
[1] = cited from earlier work
[2] = biological target: T1, Hydroxy-3-methyl-glutaryl-CoA reductase (HMGR) (Homo sapiens, UniProt P04035); details: competitive binding to the cofactor site; cited from earlier work
T1 sequence (P04035 426-888 limits assumed): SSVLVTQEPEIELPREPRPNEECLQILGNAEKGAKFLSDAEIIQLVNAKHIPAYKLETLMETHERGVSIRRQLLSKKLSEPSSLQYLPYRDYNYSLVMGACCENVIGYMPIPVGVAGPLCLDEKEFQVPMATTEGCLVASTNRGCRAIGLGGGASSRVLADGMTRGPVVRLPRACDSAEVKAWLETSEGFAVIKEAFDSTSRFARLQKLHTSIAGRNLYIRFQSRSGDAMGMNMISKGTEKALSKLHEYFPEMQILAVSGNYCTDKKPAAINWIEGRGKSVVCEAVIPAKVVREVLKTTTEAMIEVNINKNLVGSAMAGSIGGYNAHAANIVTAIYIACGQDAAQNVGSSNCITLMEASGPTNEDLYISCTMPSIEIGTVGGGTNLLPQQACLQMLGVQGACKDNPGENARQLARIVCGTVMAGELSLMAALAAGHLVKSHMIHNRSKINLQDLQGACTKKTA

[3] = Plasma lipid profile in high-fat diet mice (nutritionally induced hypercholesterolemia model); type: in vivo, C57BL/6 mice; details: oral
Protocol: High fat diet male C57BL/6 mice aged 4-5 weeks and weighing 20-25 g were purchased from Taconic Biosciences, Inc. (Germantown, NY, USA). All animal studies were conducted at the animal facility of the Veteran Affairs Medical Center (VAMC) (Albany, NY, USA) in accordance with institutional guidelines for humane animal treatment and approved by the Institutional Animal Care & Use Committee (IACUC) at VAMC. Animals were maintained under specific pathogen-free conditions and housed under controlled conditions of temperature (20-24° C.) and humidity (60-70%) and 12 h light/dark cycle with ad libitum access to water and food. The mice were grouped into five arms (n=5). Administrated orally to the mice were water for vehicle control (VCtrl), Void nanoparticle (void NP), EGCG (30 mg/kg), Nano EGCG (NP-EGCG) and Nano-targeted EGCG (NPT-EGCG) at 30 mg/kg equivalent EGCG for 3 weeks. Blood was collected from retro-orbital after the 24 h, week 1, week 2 and week 3 treatment to measure the levels of plasma total cholesterol, LDL-C, HDL, free and cholesteryl esters. Animals were humanely sacrificed, and liver tissue was collected. The plasma contents of total cholesterol, LDL-C, HDL-C, free and cholesteryl esters were measured with the Cholesterol-HDL and LDL/VLDL assay kit according to the manufacturer's instructions (Abcam, Boston, MA, USA). Statistical analysis was performed using GraphPad Prism (San Diego, CA, USA) (Wilkinson, 1956). All data are presented as mean±standard deviation of the mean. The Mann-Whitney nonparametric test was used to determine differences in the groups. ***P<0.001, **P<0.01, *P<0.05 were considered as significant.

[4] = 30 mg/kg, week 3, compared to vehicle control and void NP

(−)-epigallocatechin gallate [EGCG]
stability of EGCG ([1]; acidic solutions (pH<4)): very stable | stability of EGCG ([1]; neutral and alkaline solutions): extremely unstable and degraded almost completely in a few minutes | inhibition of in vitro activity of HMGR [2]: potently inhibits | decrease of plasma total cholesterol ([3]; 30 mg/kg (equivalent) EGCG, week 3, compared to vehicle control and void NP): 28% | plasma cholesteryl esters (in words) ([3]; 30 mg/kg, week 2 and week 3): significant decrease | decrease in plasma LDL-C ([3]; 30 mg/kg, week 3): 3% | increase in plasma HDL-C ([3]; 30 mg/kg, week 3): 10% | levels of free cholesterol in plasma (in words) [3, 4]: significant decrease | reduction of plasma cholesteryl esters [3, 4]: 30% | reduction of plasma free cholesterol [3, 4]: 11%
